Laboratory results reported in PubChem BioAssay (NCI).
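Grown in 96-well plates, cells were treated for 48 hours with each compound at five concentrations. Insufficient inhibition: endpoint recorded as highest concentration tested. GI50 = concentration required for 50% inhibition of growth. The concentration for full growth arrest is given as TGI.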

Key:
Test in all cases: inhibition of tumour cell growth, NCI panel, 48 h
[1] = system: ACHN renal
[2] = system: SK-OV-3 ovarian
[3] = system: UACC-62 melanoma
[4] = system: OVCAR-4 ovarian
[5] = system: OVCAR-8 ovarian
[6] = system: NCI-H460 lung
[7] = system: HCT-15 colon
[8] = system: SN12C renal
[9] = system: A498 renal
[10] = system: OVCAR-5 ovarian

Q: For `CCCCCCCCCCCCC[C@H](O)C[C@H](O)[C@H](C)N`, which GI50 [1] is on record?
A: 1.86 µM

Q: What about the TGI [1] of the same molecule?
A: 3.3 µM

Q: And the GI50 [2]?
A: 14.6 µM

Q: And the TGI [2]?
A: 40.9 µM

Q: What about the GI50 [3] of the same molecule?
A: 1.87 µM

Q: And the TGI [3]?
A: 3.27 µM

Q: What about the GI50 [4] of the same molecule?
A: 2.25 µM

Q: And the TGI [4]?
A: 5.52 µM

Q: What about the GI50 [5] of the same molecule?
A: 3.49 µM

Q: And the TGI [5]?
A: > 100 µM

Q: What about the GI50 [6] of the same molecule?
A: 1.63 µM

Q: What about the TGI [6] of the same molecule?
A: 3.87 µM

Q: What about the GI50 [7] of the same molecule?
A: 1.65 µM

Q: And the TGI [7]?
A: 3.11 µM

Q: And the GI50 [8]?
A: 1.92 µM

Q: What about the TGI [8] of the same molecule?
A: 3.38 µM

Q: And the GI50 [9]?
A: 6.19 µM

Q: What about the TGI [9] of the same molecule?
A: 47.1 µM

Q: What about the GI50 [10] of the same molecule?
A: 1.95 µM

Q: And the TGI [10]?
A: 3.42 µM
